For 33 molecules, IC50 results are on record in US11718622B2, “Heterocyclic adenosine receptor antagonists” (Exelixis, Inc., priority 2020, dated 2023).

The target in experiment [1] is Adenosine A2B (ADORA2B) receptor (Homo sapiens (Human), UniProt P29275). Nature of the experiment: ADORA2B Receptor Binding Assay. To be noted: radioligand binding, membrane stock. The procedure, abridged: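 Radioligand competition binding on human A2B receptor membranes, 1 h at room temperature, then filtration through BSA-presoaked GF/C filters and ³H counting by scintillation. Inhibition expressed as % of high control after background subtraction.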
Sequence of Adenosine A2B (ADORA2B) receptor (P29275 whole entry): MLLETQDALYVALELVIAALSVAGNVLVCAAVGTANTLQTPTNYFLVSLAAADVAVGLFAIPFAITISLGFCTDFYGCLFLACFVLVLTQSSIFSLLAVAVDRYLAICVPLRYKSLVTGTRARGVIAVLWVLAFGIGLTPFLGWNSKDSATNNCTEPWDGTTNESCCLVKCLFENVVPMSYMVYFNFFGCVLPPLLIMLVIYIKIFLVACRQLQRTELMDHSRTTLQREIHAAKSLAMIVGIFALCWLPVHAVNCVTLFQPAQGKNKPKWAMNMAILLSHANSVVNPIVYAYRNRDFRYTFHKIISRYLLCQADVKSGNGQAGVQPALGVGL

The target of experiment [2] is Adenosine A2a (ADORA2A) receptor (Homo sapiens (Human), UniProt P29274). Kind of experiment: ADORA2A Receptor Binding Assay. To be noted: radioligand binding, membrane stock. The procedure, abridged: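 Test compounds incubated with A2a receptor membranes and a ³H-labelled radioligand for 2 hours at room temperature, then filtered through PEI-presoaked GF/C plates and washed. Filter-bound ³H counted by scintillation; % inhibition calculated from background-subtracted signal relative to high control.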
Sequence of Adenosine A2a (ADORA2A) receptor (P29274 whole entry): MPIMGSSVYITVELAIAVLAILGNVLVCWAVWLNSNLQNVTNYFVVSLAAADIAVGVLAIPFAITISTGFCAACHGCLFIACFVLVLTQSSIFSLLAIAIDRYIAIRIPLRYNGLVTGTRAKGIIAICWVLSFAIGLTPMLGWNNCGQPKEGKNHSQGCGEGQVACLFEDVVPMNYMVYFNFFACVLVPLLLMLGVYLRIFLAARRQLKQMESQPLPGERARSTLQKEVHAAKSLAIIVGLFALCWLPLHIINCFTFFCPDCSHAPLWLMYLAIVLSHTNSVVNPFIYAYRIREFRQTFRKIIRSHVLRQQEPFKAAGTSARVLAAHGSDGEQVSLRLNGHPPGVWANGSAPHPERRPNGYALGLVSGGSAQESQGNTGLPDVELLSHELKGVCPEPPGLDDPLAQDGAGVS

Bounds are passed on as bounds.

One may read the IC50 as the concentration at which inhibition is half-maximal. A higher IC50 goes with lower potency. Consider `CCS(=O)(=O)Nc1cn2cc(C)nc2c(-c2ccco2)n1` [Compound 225, N-[8-(furan-2-yl)-2-methylimidazo[1,2-a]pyrazin-6-yl]ethanesulfonamide], for which the half-maximal inhibitory concentration (IC50) in experiment [1] and in experiment [2] was 100 to 1000 nM each time.

Regarding `Cc1nc2c(-c3ccco3)nc(NC(=O)C3CC3)cn2n1` [Compound 180, N-[8-(furan-2-yl)-2-methyl-[1,2,4]triazolo[1,5-a]pyrazin-6-yl]cyclopropanecarboxamide], the IC50 in experiment [1] and in experiment [2] was under 10 nM in each case.

Take `O=C(Nc1cc2nc(C3CNC3)nn2c(-c2ccco2)n1)C1CC1` [Compound 123, N-[2-(azetidin-3-yl)-5-(furan-2-yl)-[1,2,4]triazolo[1,5-c]pyrimidin-7-yl]cyclopropanecarboxamide]: the 50% inhibitory concentration (IC50) in experiment [1] was over 1000 nM; in experiment [2], 10 to 100 nM.

For the molecule `Cc1nc2c3cc[nH]c3nc(-c3ccc(C)o3)n2n1` [Compound 35, 4-methyl-7-(5-methylfuran-2-yl)-3,5,6,8,10-pentazatricyclo[7.3.0.0^2,6]dodeca-1(9),2,4,7,11-pentaene], the IC50 in experiment [1] and in experiment [2] was under 10 nM throughout.

For `CC(=O)Nc1cn2cc(C)nc2c(-c2ccco2)n1` [Compound 211, N-[8-(furan-2-yl)-2-methylimidazo[1,2-a]pyrazin-6-yl]acetamide], the concentration for half-maximal inhibition (IC50) in experiment [1] and in experiment [2] was 10 to 100 nM in each case.

In the case of `CC(C)c1nc2c(Cl)c(N)nc(-c3ccccc3)n2n1` [Compound 86, 8-chloro-5-phenyl-2-propan-2-yl-[1,2,4]triazolo[1,5-c]pyrimidin-7-amine], the half-maximal inhibitory concentration (IC50) was 10 to 100 nM in experiment [1] and under 10 nM in experiment [2].

With `Cc1ccc(-c2nc(NC(=O)C3CC3)cn3ncnc23)o1` [Compound 167, N-[8-(5-methylfuran-2-yl)-[1,2,4]triazolo[1,5-a]pyrazin-6-yl]cyclopropanecarboxamide], the IC50 in experiment [1] and in experiment [2] was under 10 nM in each case.

In the case of `Cc1nc2c3c(nc(-c4ccc(C)o4)n2n1)NCC3(C)C` [Compound 28, 4,12,12-trimethyl-7-(5-methylfuran-2-yl)-3,5,6,8,10-pentazatricyclo[7.3.0.0^2,6]dodeca-1(9),2,4,7-tetraene], the IC50 in experiment [1] fell in the range of 100 to 1000 nM; in experiment [2], 10 to 100 nM.

With `Cc1nc2cc(NC(=O)C(F)(F)F)nc(-c3ccco3)n2n1` [Compound 143, 2,2,2-trifluoro-N-[5-(furan-2-yl)-2-methyl-[1,2,4]triazolo[1,5-c]pyrimidin-7-yl]acetamide], the results for the half-maximal inhibitory concentration (IC50) in experiment [1] and in experiment [2] were 100 to 1000 nM and 10 to 100 nM, respectively.

In the case of `CC(=O)Nc1cc2nc(C3CNC3)nn2c(-c2ccco2)n1` [Compound 122, N-[2-(azetidin-3-yl)-5-(furan-2-yl)-[1,2,4]triazolo[1,5-c]pyrimidin-7-yl]acetamide], the results for the IC50 in experiment [1] and in experiment [2] were over 1000 nM and 100 to 1000 nM, respectively.

In the case of `Cc1nc2cc(NC(=O)N3CC[C@H](O)C3)nc(-c3ccco3)n2n1` [Compound 107, (3S)-N-[5-(furan-2-yl)-2-methyl-[1,2,4]triazolo[1,5-c]pyrimidin-7-yl]-3-hydroxypyrrolidine-1-carboxamide], the concentration for half-maximal inhibition (IC50) in experiment [1] and in experiment [2] was over 1000 nM each time.

Take `Cc1nc2cc(NC(=O)NCC(C)C)nc(-c3ccco3)n2n1` [Compound 156, 1-[5-(furan-2-yl)-2-methyl-[1,2,4]triazolo[1,5-c]pyrimidin-7-yl]-3-(2-methylpropyl)urea]: the IC50 in experiment [1] is 10 to 100 nM; in experiment [2], under 10 nM.

As to `Cc1ccc(-c2nc(NC(=O)C3CC3)cc3nc(C4CCC4)nn23)o1` [Compound 64, N-[2-cyclobutyl-5-(5-methylfuran-2-yl)-[1,2,4]triazolo[1,5-c]pyrimidin-7-yl]cyclopropanecarboxamide], the concentration for half-maximal inhibition (IC50) was 10 to 100 nM in experiment [1] and under 10 nM in experiment [2].

Turning to `Nc1nc(-c2ccccc2)n2nc(C(F)(F)F)nc2c1Cl` [Compound 87, 8-chloro-5-phenyl-2-(trifluoromethyl)-[1,2,4]triazolo[1,5-c]pyrimidin-7-amine], the values for the IC50 in experiment [1] and in experiment [2] were 10 to 100 nM and under 10 nM, respectively.

For `CC(=O)Nc1cc2nc(C)nn2c(-c2ccc(S(=O)(=O)N(C)C)cc2)n1` [Compound 117, N-[5-[4-(dimethylsulfamoyl)phenyl]-2-methyl-[1,2,4]triazolo[1,5-c]pyrimidin-7-yl]acetamide], the IC50 in experiment [1] and in experiment [2] was over 1000 nM each time.

For `Cc1ccc(-c2nc(NC(=O)C3CC3)cc3nc(C4CCOC4)nn23)o1` (stereo not drawn) [Compound 50, N-[5-(5-methylfuran-2-yl)-2-(oxolan-3-yl)-[1,2,4]triazolo[1,5-c]pyrimidin-7-yl]cyclopropanecarboxamide], the 50% inhibitory concentration (IC50) in experiment [1] is 10 to 100 nM; in experiment [2], under 10 nM.

As to `Cc1nc2c(nc(-c3ccc(C)o3)n3nc(C(C)C)nc23)[nH]1` [Compound 120, 2-methyl-5-(5-methylfuran-2-yl)-8-propan-2-yl-3H-[1,2,4]triazolo[5,1-f]purine], the IC50 in experiment [1] was 10 to 100 nM; in experiment [2], under 10 nM.

Regarding `Cc1ccc(-c2nc3c(c4nc(C(C)C)nn24)C(C)(C)CN3)o1` [Compound 36, 12,12-dimethyl-7-(5-methylfuran-2-yl)-4-propan-2-yl-3,5,6,8,10-pentazatricyclo[7.3.0.0^2,6]dodeca-1(9),2,4,7-tetraene], the half-maximal inhibitory concentration (IC50) in experiment [1] lay in the range of 100 to 1000 nM; in experiment [2] it was 10 to 100 nM.

For `Nc1nc(-c2ccccc2)n2nc(CF)nc2c1Cl` [Compound 138, 8-chloro-2-(fluoromethyl)-5-phenyl-[1,2,4]triazolo[1,5-c]pyrimidin-7-amine], the half-maximal inhibitory concentration (IC50) was 10 to 100 nM in experiment [1] and under 10 nM in experiment [2].

In the case of `Cc1cc2c(nc(-c3ccco3)n3nc(C(F)(F)F)nc23)[nH]1` [Compound 82, 7-(furan-2-yl)-11-methyl-4-(trifluoromethyl)-3,5,6,8,10-pentazatricyclo[7.3.0.0^2,6]dodeca-1(9),2,4,7,11-pentaene], the IC50 in experiment [1] and in experiment [2] was under 10 nM throughout.

Take `CC(=O)Nc1cc2nc(C3CC3)nn2c(-c2ccc(C)o2)n1` [Compound 61, N-[2-cyclopropyl-5-(5-methylfuran-2-yl)-[1,2,4]triazolo[1,5-c]pyrimidin-7-yl]acetamide]: the results for the IC50 in experiment [1] and in experiment [2] were 10 to 100 nM and under 10 nM, respectively.

In the case of `Cc1nc2cc(NC(=O)C3CC3)nc(-c3ccc(Br)o3)n2n1` [Compound 52, N-[5-(5-bromofuran-2-yl)-2-methyl-[1,2,4]triazolo[1,5-c]pyrimidin-7-yl]cyclopropanecarboxamide], the IC50 in experiment [1] and in experiment [2] was under 10 nM in each case.

Regarding `Cc1nc2c(-c3ccccc3C)nc(N)c(Cl)n2n1` [Compound 182, 5-chloro-2-methyl-8-(2-methylphenyl)-[1,2,4]triazolo[1,5-a]pyrazin-6-amine], the concentration for half-maximal inhibition (IC50) in experiment [1] and in experiment [2] was 100 to 1000 nM each time.

As for `CCCNC(=O)Nc1cc2nc(C)nn2c(-c2ccco2)n1` [Compound 154, 1-[5-(furan-2-yl)-2-methyl-[1,2,4]triazolo[1,5-c]pyrimidin-7-yl]-3-propylurea], the half-inhibitory concentration (IC50) in experiment [1] and in experiment [2] was 10 to 100 nM throughout.

In the case of `Cc1ccc(-c2nc3[nH]ncc3c3nc(C(F)(F)F)nn23)o1` [Compound 153, 7-(5-methylfuran-2-yl)-4-(trifluoromethyl)-3,5,6,8,10,11-hexazatricyclo[7.3.0.0^2,6]dodeca-1(9),2,4,7,11-pentaene], the IC50 in experiment [1] was 10 to 100 nM; in experiment [2], under 10 nM.

In the case of `CC(C)c1cn2cc(NC(=O)C3CC3)nc(-c3ccco3)c2n1` [Compound 212, N-[8-(furan-2-yl)-2-propan-2-ylimidazo[1,2-a]pyrazin-6-yl]cyclopropanecarboxamide], the figures for the half-maximal inhibitory concentration (IC50) in experiment [1] and in experiment [2] were 10 to 100 nM and under 10 nM, respectively.

Consider `Cc1ccc(-c2nc(NC(=O)C3CC3)cc3nc(C4CCOCC4)nn23)o1` [Compound 54, N-[5-(5-methylfuran-2-yl)-2-(oxan-4-yl)-[1,2,4]triazolo[1,5-c]pyrimidin-7-yl]cyclopropanecarboxamide], for which the results for the half-maximal inhibitory concentration (IC50) in experiment [1] and in experiment [2] were 100 to 1000 nM and under 10 nM, respectively.

Turning to `Cc1cn2cc(NC(=O)C3CC3)nc(-c3ccc(C)o3)c2n1` [Compound 199, N-[2-methyl-8-(5-methylfuran-2-yl)imidazo[1,2-a]pyrazin-6-yl]cyclopropanecarboxamide], the results for the IC50 in experiment [1] and in experiment [2] were 10 to 100 nM and under 10 nM, respectively.

`Cc1nc2c(F)c(NC(=O)C3CC3)nc(-c3ccc(C)o3)n2n1` [Compound 39, N-[8-fluoro-2-methyl-5-(5-methylfuran-2-yl)-[1,2,4]triazolo[1,5-c]pyrimidin-7-yl]cyclopropanecarboxamide]: the concentration for half-maximal inhibition (IC50) in experiment [1] was 10 to 100 nM; in experiment [2], under 10 nM.

On to `Cc1ccc(-c2nc(N)c(Cl)c3nc(C(F)(F)F)nn23)o1` [Compound 42, 8-chloro-5-(5-methylfuran-2-yl)-2-(trifluoromethyl)-[1,2,4]triazolo[1,5-c]pyrimidin-7-amine], for which the IC50 in experiment [1] and in experiment [2] was under 10 nM in each case.

With `Cc1nc2c3nc(C(F)(F)F)[nH]c3nc(-c3ccc(C)o3)n2n1` [Compound 161, 8-methyl-5-(5-methylfuran-2-yl)-2-(trifluoromethyl)-3H-[1,2,4]triazolo[5,1-f]purine], the half-maximal inhibitory concentration (IC50) in experiment [1] and in experiment [2] was 100 to 1000 nM each time.

Take `Cc1nc2c(Cl)c(N)nc(-c3cccc(F)c3)n2n1` [Compound 146, 8-chloro-5-(3-fluorophenyl)-2-methyl-[1,2,4]triazolo[1,5-c]pyrimidin-7-amine]: the IC50 was 10 to 100 nM in experiment [1] and under 10 nM in experiment [2].

Regarding `Cc1nc2cc(NC(=O)C3CC3)nc(-c3ccc(C)o3)n2n1` [Compound 2, N-(2-methyl-5-(5-methylfuran-2-yl)-[1,2,4]triazolo[1,5-c]pyrimidin-7-yl)cyclopropanecarboxamide], the concentration for half-maximal inhibition (IC50) in experiment [1] and in experiment [2] was under 10 nM in each case.
